Measurements reported in patent publication US9221827B2, “Antimicrobial compounds and methods of making and using the same” (Melinta Therapeutics, Inc., priority 2011, dated 2015).

System: Escherichia coli strain ATCC25922
Assay: standard microdilution assay to determine minimum inhibitory concentrations (MICs)
Type: cell-based
Method in brief: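 Broth microdilution per CLSI (M7-A8/M100-S20), 100 μl final volume, with reference-strain quality control; MIC is the lowest inhibitory concentration. Scored "+"/"−" against a 16 micrograms/ml cutoff, "N/A" where unavailable.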

[1] = Escherichia coli strain ATCC25922, microdilution
[2] = Escherichia coli strain ATCC25922, standard microdilution assay

Row | SMILES | E. coli ATCC25922 MIC [1] | E. coli ATCC25922 MIC [2]
1 | N=C(N)NCCCNCc1ccc(-n2cc3cc(-c4cc(CCC5(CN)CC5)cc(SC(F)(F)F)c4)[nH]c3nc2=O)cc1 [Compound 307] | + (a “+” indicates that the compound has an MIC value of 16 micrograms/ml or less) | 
2 | Cc1c(Cl)cc(CCCCN)cc1-c1cc2cn(-c3ccc(CNCCCNC(=N)N)cc3)c(=O)nc2[nH]1 [Compound 108] | + (a “+” indicates that the compound has an MIC value of 16 micrograms/ml or less) | 
3 | COC(=O)C(NCCCNC(=N)N)c1ccc(-n2cc3cc(-c4cc(CCCC(C)N)cc(Cl)c4F)[nH]c3nc2=O)cc1 (stereo not shown) [Compound 494] | + (a “+” indicates that the compound has an MIC value of 16 micrograms/ml or less) | 
4 | CC[C@H](N)CCCc1cc(Cl)c(F)c(-c2cc3cn(-c4ccc(CNCCCNC(=N)N)cc4)c(=O)nc3[nH]2)c1 [Compound 341] |  | + (a “+” indicates that the compound has an MIC value of 16 micrograms/ml or less)
5 | CC(C)(N)CCCc1cc(Cl)c(F)c(-c2cc3cn(-c4ccc(CN)cc4)c(=O)nc3[nH]2)c1 [Compound 372] |  | − (a “−” indicates that the compound has an MIC value greater than 16 micrograms/ml)
6 | COC(=O)C(NCCCNC(=N)N)c1ccc(-n2cc3cc(-c4cc(CCCC(C)N)cc(C(F)(F)F)c4)[nH]c3nc2=O)cc1 (stereo not shown) [Compound 496] | + (a “+” indicates that the compound has an MIC value of 16 micrograms/ml or less) | 
7 | N=C(N)NCCCNCc1ccc(-n2cc3cc(-c4cc(OC(F)(F)F)cc(C(O)CCCN)c4)[nH]c3nc2=O)cc1 (stereo not shown) [Compound 42] | + (a “+” indicates that the compound has an MIC value of 16 micrograms/ml or less) | 
8 | N=C(N)NCCCNCc1ccc(-n2cc3cc(-c4cc(C5CCC(CN)CC5)cc(Cl)c4F)[nH]c3nc2=O)cc1 (stereo not shown) [Compound 450] |  | + (a “+” indicates that the compound has an MIC value of 16 micrograms/ml or less)
9 | C[C@H](NCCCNC(=N)N)c1ccc(-n2cc3cc(-c4cc(CCCCN)cc(SC(F)(F)F)c4)[nH]c3nc2=O)cc1 [Compound 69] | + (a “+” indicates that the compound has an MIC value of 16 micrograms/ml or less) | 
10 | C[C@H](NCCCNC(=N)N)c1ccc(-n2cc3cc(-c4cc(CCCC(C)(C)N)cc(Cl)c4F)[nH]c3nc2=O)cc1 [Compound 296] | + (a “+” indicates that the compound has an MIC value of 16 micrograms/ml or less) | 
11 | C[C@H](N)CCCc1cc(SC(F)(F)F)c(F)c(-c2cc3cn(-c4ccc([C@H](C)NCCCNC(=N)N)cc4)c(=O)nc3[nH]2)c1 [Compound 471] | + (a “+” indicates that the compound has an MIC value of 16 micrograms/ml or less) | 
12 | CC(CN)Cc1cc(-c2cc3cn(-c4ccc(CNCCCNC(=N)N)cc4)c(=O)nc3[nH]2)cc(C(F)(F)F)c1 (stereo not shown) [Compound 242] | + (a “+” indicates that the compound has an MIC value of 16 micrograms/ml or less) | 
13 | CC(NCCCNC(=N)N)c1ccc(-n2cc3cc(-c4cc(CCC5(CN)CC5)cc(Cl)c4F)[nH]c3nc2=O)cc1 (stereo not shown) [Compound 272] | + (a “+” indicates that the compound has an MIC value of 16 micrograms/ml or less) | 
14 | Cc1c(Cl)cc(-c2cc3cn(-c4ccc(CNCCCNC(=N)N)cc4)c(=O)nc3[nH]2)cc1CCCCN [Compound 109] | + (a “+” indicates that the compound has an MIC value of 16 micrograms/ml or less) | 
15 | N=C(N)NCCCNCc1ccc(-n2cc3cc(-c4cc(CCCCN)cc([N+](=O)[O-])c4Cl)[nH]c3nc2=O)cc1 [Compound 115] | + (a “+” indicates that the compound has an MIC value of 16 micrograms/ml or less) | 
16 | N=C(N)NCCCNCc1ccc(-n2cc3cc(-c4cc(CCC5COCC5N)cc(OC(F)(F)F)c4)[nH]c3nc2=O)cc1 (stereo not shown) [Compound 476] | + (a “+” indicates that the compound has an MIC value of 16 micrograms/ml or less) | 
17 | COC(CCCN)c1cc(OC(F)(F)F)cc(-c2cc3cn(-c4ccc(CNCCCNC(=N)N)cc4)c(=O)nc3[nH]2)c1 (stereo not shown) [Compound 216] | + (a “+” indicates that the compound has an MIC value of 16 micrograms/ml or less) | 
18 | C[C@H](N)CCCc1cc(C(F)(F)F)cc(-c2cc3cn(-c4ccc(CNCCCNC(=N)N)cc4)c(=O)nc3[nH]2)n1 [Compound 389] |  | + (a “+” indicates that the compound has an MIC value of 16 micrograms/ml or less)
19 | CC(C)(CNCc1ccc(-n2cc3cc(-c4cc(CCCCN)cc(OC(F)(F)F)c4)[nH]c3nc2=O)cc1)CNC(=N)N [Compound 31] | + (a “+” indicates that the compound has an MIC value of 16 micrograms/ml or less) | 
20 | NCCCCc1cc(OC(F)(F)F)c(Cl)c(-c2cc3cn(-c4ccc(CNCCCN=C(N)N)cc4)c(=O)nc3[nH]2)c1 [Compound 65] | + (a “+” indicates that the compound has an MIC value of 16 micrograms/ml or less) | 
21 | CC(N)CCCc1cc(-c2cc3cn(-c4ccc(C5(NCCCNC(=N)N)CC5)cc4)c(=O)nc3[nH]2)cc(C(F)(F)F)c1 (stereo not shown) [Compound 485] | + (a “+” indicates that the compound has an MIC value of 16 micrograms/ml or less) | 
22 | C[C@H](NCCCNC(=N)N)c1ccc(-n2cc3cc(-c4cc(C[C@H]5C[C@H](CN)C5)cc(SC(F)(F)F)c4)[nH]c3nc2=O)cc1 [Compound 403] |  | + (a “+” indicates that the compound has an MIC value of 16 micrograms/ml or less)

Row | SMILES | E. coli ATCC25922 MIC [1] | E. coli ATCC25922 MIC [2]
23 | C[C@H](NCCCNC(=N)N)c1ccc(-n2cc3cc(-c4cc(CCC5(CN)CC5)cc(Cl)c4F)[nH]c3nc2=O)cc1 [Compound 320] | + (a “+” indicates that the compound has an MIC value of 16 micrograms/ml or less) | 
24 | N=C(N)NCCCNCc1ccc(-n2cc3cc(-c4cc(COC5COCC5N)cc(OC(F)(F)F)c4)[nH]c3nc2=O)cc1 (stereo not shown) [Compound 459] |  | + (a “+” indicates that the compound has an MIC value of 16 micrograms/ml or less)
25 | CC(N)CCCc1cc(-c2cc3cn(-c4ccc(C(C)NCCCNC(=N)N)cc4)c(=O)nc3[nH]2)c(F)c(Cl)c1F (stereo not shown) [Compound 493] | + (a “+” indicates that the compound has an MIC value of 16 micrograms/ml or less) | 
26 | C[C@H](NCCCNC(=N)N)c1ccc(-n2cc3cc(-c4cc(COCC(C)(C)N)cc(C(F)(F)F)c4)[nH]c3nc2=O)cc1 [Compound 455] |  | + (a “+” indicates that the compound has an MIC value of 16 micrograms/ml or less)
27 | N=C(N)NCCCNCc1ccc(-n2cc3cc(-c4cc(OC(F)(F)F)cc(C5CCC(CN)O5)c4)[nH]c3nc2=O)cc1 (stereo not shown) [Compound 437] |  | + (a “+” indicates that the compound has an MIC value of 16 micrograms/ml or less)
28 | CNC(C)CCCc1cc(Cl)c(F)c(-c2cc3cn(-c4ccc(CNCCCNC(=N)N)cc4)c(=O)nc3[nH]2)c1 (stereo not shown) [Compound 292] | + (a “+” indicates that the compound has an MIC value of 16 micrograms/ml or less) | 
29 | N=C(N)NCCCNCc1ccc(-n2cc3cc(-c4cc(CCCCN)cc(OC(F)(F)F)c4)[nH]c3nc2=O)cc1 [Compound 221] | + (a “+” indicates that the compound has an MIC value of 16 micrograms/ml or less) | 
30 | Cc1cc(CCCCN)cc(-c2cc3cn(-c4ccc(CNCCCN=C(N)N)cc4)c(=O)nc3[nH]2)c1Cl [Compound 63] | + (a “+” indicates that the compound has an MIC value of 16 micrograms/ml or less) | 
31 | NCCCCc1cc(-c2cc3cn(-c4ccc(CNCCCN=C(N)N)cc4)c(=O)nc3[nH]2)c(Cl)c(C(F)(F)F)c1 [Compound 64] | + (a “+” indicates that the compound has an MIC value of 16 micrograms/ml or less) | 
32 | CC[C@H](NCCCNC(=N)N)c1ccc(-n2cc3cc(-c4cc(CCC[C@H](C)N)cc(C(F)(F)F)c4)[nH]c3nc2=O)cc1 [Compound 400] |  | + (a “+” indicates that the compound has an MIC value of 16 micrograms/ml or less)
33 | CC(N)CCc1cc(Cl)c(F)c(-c2cc3cn(-c4ccc(CNCCCNC(=N)N)cc4)c(=O)nc3[nH]2)c1 (stereo not shown) [Compound 278] | + (a “+” indicates that the compound has an MIC value of 16 micrograms/ml or less) | 
34 | CC(C)(N)CCc1cc(OC(F)(F)F)cc(-c2cc3cn(-c4ccc(CNCCCNC(=N)N)cc4)c(=O)nc3[nH]2)c1 [Compound 255] | + (a “+” indicates that the compound has an MIC value of 16 micrograms/ml or less) | 
35 | C[C@H](N)CCCc1cc(-c2cc3cn(-c4ccc(CNCCCNC(=N)N)cc4)c(=O)nc3[nH]2)cc2c1COC2 [Compound 444] |  | + (a “+” indicates that the compound has an MIC value of 16 micrograms/ml or less)
36 | N=C(N)NCCCNCc1ccc(-n2cc3cc(-c4cc(CCCCN)cc(CN)c4C(F)(F)F)[nH]c3nc2=O)cc1 [Compound 250] | + (a “+” indicates that the compound has an MIC value of 16 micrograms/ml or less) | 
37 | CC(N)CCCc1cc(-c2cc3cn(-c4ccc(CNCCCNC(=N)N)cc4)c(=O)nc3[nH]2)c(F)c(C(F)(F)F)c1 (stereo not shown) [Compound 275] | + (a “+” indicates that the compound has an MIC value of 16 micrograms/ml or less) | 
38 | CC(C)c1cccc(OCCCN)c1NC(=O)Nc1nc(=O)c(-c2ccc(CNCCCNC(=N)N)cc2)c[nH]1 [Compound 186] | − (a “−” indicates that the compound has an MIC value greater than 16 micrograms/ml) | 
39 | CC(CCCN)c1cc(OC(F)(F)F)cc(-c2cc3cn(-c4ccc(CNCCCNC(=N)N)cc4)c(=O)nc3[nH]2)c1 (stereo not shown) [Compound 94] | + (a “+” indicates that the compound has an MIC value of 16 micrograms/ml or less) | 
40 | Cc1c(OC(F)F)cc(CCCCN)cc1-c1cc2cn(-c3ccc(CNCCCNC(=N)N)cc3)c(=O)nc2[nH]1 [Compound 237] | + (a “+” indicates that the compound has an MIC value of 16 micrograms/ml or less) | 
41 | CC(N)CCCc1cc(CCl)cc(-c2cc3cn(-c4ccc(CNCCCNC(=N)N)cc4)c(=O)nc3[nH]2)c1 (stereo not shown) [Compound 266] | + (a “+” indicates that the compound has an MIC value of 16 micrograms/ml or less) | 
42 | Cc1cc(-c2cc3cn(-c4ccc(CNCCCN=C(N)N)cc4)c(=O)nc3[nH]2)cc(CCCCNC(=N)N)c1F [Compound 74] | + (a “+” indicates that the compound has an MIC value of 16 micrograms/ml or less) | 
43 | CC(N)CCCc1cc(SC(F)(F)F)cc(-c2cc3cn(-c4ccc(C(CCO)NCCCNC(=N)N)cc4)c(=O)nc3[nH]2)c1 (stereo not shown) [Compound 507] | + (a “+” indicates that the compound has an MIC value of 16 micrograms/ml or less) | 
